“And” between values parts separate entries of the source, which are not always exact repeats. Identical values can stand only once.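 Cultured in 96-well plates, cells were exposed to test compound for 48 hours across five concentrations. GI50 is the concentration that inhibits growth by half. The concentration for full growth arrest is given as TGI.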 Some results are limits rather than exact numbers.

Test systems include HCC-2998 colon; HCT-116 colon; OVCAR-8 ovarian; UACC-257 melanoma; CAKI-1 renal; KM12 colon; UO-31 renal; HOP-92 NSCLC; DU-145 prostate; SNB-19 CNS.
Holding throughout (experiment): inhibition of tumour cell growth, NCI panel, 48 h

Regarding `CN(C)C(=S)N=Nc1c(O)[nH]c2ccccc12`, the GI50 in the experiment on HCC-2998 colon was 1.54 µM; with HCT-116 colon it was 0.303 µM; with OVCAR-8 ovarian it was 0.525 µM; in the experiment on UACC-257 melanoma it was 2.31 µM; in the experiment on CAKI-1 renal it was 0.257 µM; with KM12 colon, 0.496 µM. The GI50 in the experiment on UO-31 renal was 0.384 µM; in the experiment with HOP-92 NSCLC, 0.761 µM; with DU-145 prostate, 0.955 µM; in the experiment on SNB-19 CNS, 0.546 µM. The TGI in the experiment with HCC-2998 colon came to 17.2 µM; with HCT-116 colon, 3 µM; in the experiment on OVCAR-8 ovarian it was 26 µM; in the experiment with UACC-257 melanoma, 17 µM; with CAKI-1 renal it was 1.26 µM; in the experiment with KM12 colon, 12.9 µM. Also, the TGI turned out to be 6.03 µM with UO-31 renal, 15.9 µM in the experiment with HOP-92 NSCLC, 11.4 µM with DU-145 prostate and 15 µM in the experiment with SNB-19 CNS.
For `Nc1cc(N)c(N)cc1N`, the GI50 in the experiment on HCC-2998 colon was 13.4 µM; with HCT-116 colon, 2.01 µM; in the experiment on OVCAR-8 ovarian, 3.15 µM; with UACC-257 melanoma, 1.55 µM; in the experiment on CAKI-1 renal, 2.55 µM; with KM12 colon it was 2.88 µM. Also, the GI50 was 1.56 µM with UO-31 renal, 12 µM in the experiment with HOP-92 NSCLC, 1.75 µM with DU-145 prostate and 3.42 µM with SNB-19 CNS. The TGI was determined as 27.9 µM in the experiment on HCC-2998 colon; 4.61 µM in the experiment on HCT-116 colon; 12.3 µM in the experiment with OVCAR-8 ovarian; 3.05 µM in the experiment with UACC-257 melanoma; 7.17 µM in the experiment on CAKI-1 renal; 10.7 µM with KM12 colon. Also, the TGI in the experiment with UO-31 renal turned out to be 4.6 µM; in the experiment with HOP-92 NSCLC it was 27.2 µM; with DU-145 prostate, 3.18 µM; in the experiment on SNB-19 CNS it was 14.3 µM.
`Oc1ccc(CCCCCCc2ccc(O)cc2)cc1`: the GI50 is 11 µM with HCC-2998 colon; 9.68 µM in the experiment with HCT-116 colon; 5.18 µM in the experiment on OVCAR-8 ovarian; 13.9 µM in the experiment with UACC-257 melanoma; 1.75 µM in the experiment on CAKI-1 renal; 6.54 µM in the experiment on KM12 colon. Further, the GI50 with UO-31 renal was 2.36 µM; in the experiment on HOP-92 NSCLC it was 6.99 µM; in the experiment on DU-145 prostate, 4.8 µM; in the experiment with SNB-19 CNS, 12.6 µM. For the same molecule, the TGI is 23.2 µM in the experiment on HCC-2998 colon; 22.5 µM in the experiment on HCT-116 colon; 20.2 µM in the experiment with OVCAR-8 ovarian; 28.4 µM in the experiment with UACC-257 melanoma; 7.58 µM in the experiment with CAKI-1 renal; 19.8 µM in the experiment on KM12 colon. For the same molecule, the TGI in the experiment with UO-31 renal is 15 µM; with HOP-92 NSCLC, 20.5 µM; in the experiment with DU-145 prostate, 15.2 µM; with SNB-19 CNS, 25.5 µM.
Regarding `CCCCn1cnc2c(SC)ncnc21`, the TGI in the experiment on HCC-2998 colon, in the experiment with HCT-116 colon, with OVCAR-8 ovarian, in the experiment with UACC-257 melanoma, in the experiment on CAKI-1 renal and with KM12 colon was over 100 µM each time. Besides, the TGI in the experiment on UO-31 renal, in the experiment on HOP-92 NSCLC, with DU-145 prostate and with SNB-19 CNS was over 100 µM throughout.
For the molecule `Cc1cc(C(C#N)c2ccc(Cl)cc2)c(Cl)cc1NC(=O)c1cc(I)cc(I)c1O` (stereo not drawn), the GI50 in the experiment on HCC-2998 colon is 4.08 µM and 10.8 µM; in the experiment on HCT-116 colon, 17.7 µM and 14.5 µM; with OVCAR-8 ovarian it was 6.02 µM and 21.4 µM; with UACC-257 melanoma it was 14.4 µM and 15.1 µM; with CAKI-1 renal it was 10.2 µM and 14.3 µM; with KM12 colon, 13.7 µM and 15.9 µM. The GI50 was 14.7 µM and 14.8 µM in the experiment on UO-31 renal; 1.47 µM in the experiment with HOP-92 NSCLC; 14.5 µM and 15.2 µM in the experiment with DU-145 prostate; 5.97 µM and 10.4 µM with SNB-19 CNS. The TGI is 15.4 µM and 24 µM with HCC-2998 colon; 31.5 µM and 27.6 µM in the experiment with HCT-116 colon; > 100 µM and 52.1 µM in the experiment with OVCAR-8 ovarian; 28.1 µM and 29.6 µM in the experiment with UACC-257 melanoma; 35.1 µM and 40.9 µM with CAKI-1 renal; 29.8 µM and 30.5 µM in the experiment on KM12 colon. The TGI in the experiment with UO-31 renal was 31.4 µM and 35.1 µM; with HOP-92 NSCLC, 4.65 µM; in the experiment with DU-145 prostate, 28.7 µM and 29.1 µM; in the experiment on SNB-19 CNS it was 27.1 µM and 27.5 µM.
On to `CCOc1ccc(NCc2cc(OC)c(OC)c(OC)c2)cc1`, for which the TGI is 98.7 µM and > 50 µM with HCC-2998 colon; 48.2 µM and 46 µM in the experiment on HCT-116 colon; > 80.7 µM and 62.6 µM with OVCAR-8 ovarian; over 100 µM with UACC-257 melanoma; over 100 µM in the experiment on CAKI-1 renal; > 81.5 µM and 46.4 µM in the experiment on KM12 colon. Further, the TGI was over 100 µM in the experiment on UO-31 renal, over 91.6 µM in the experiment on HOP-92 NSCLC, over 100 µM with DU-145 prostate and over 100 µM in the experiment on SNB-19 CNS. For the same molecule, the GI50 in the experiment with OVCAR-8 ovarian was 5.75 µM and 2.31 µM; with CAKI-1 renal, 2.01 µM and 7.61 µM; with SNB-19 CNS, 4.9 µM.
As for `CC[C@H](CC#N)OC(=O)N[C@@H](C)c1cccc(NC(=O)Nc2ccc(-c3cnco3)c(OC)c2)c1`, the GI50 is 0.142 µM with HCC-2998 colon; 0.026 µM in the experiment with HCT-116 colon; 0.0612 µM with OVCAR-8 ovarian; 0.0922 µM with UACC-257 melanoma; 0.0696 µM in the experiment with CAKI-1 renal; 0.0715 µM in the experiment on KM12 colon. Further, the GI50 is 0.446 µM with UO-31 renal, 2.46 µM in the experiment with HOP-92 NSCLC, 0.0672 µM in the experiment with DU-145 prostate and 0.125 µM with SNB-19 CNS. Further, the TGI was 51.6 µM in the experiment with HCC-2998 colon; over 45.8 µM in the experiment on HCT-116 colon; 23.5 µM in the experiment with OVCAR-8 ovarian; 23.1 µM with UACC-257 melanoma; 0.396 µM in the experiment on CAKI-1 renal; 18.1 µM in the experiment with KM12 colon. Further, the TGI in the experiment on UO-31 renal was 10.3 µM; in the experiment with HOP-92 NSCLC, 44.7 µM; in the experiment with DU-145 prostate, 39.3 µM; in the experiment with SNB-19 CNS, over 100 µM.
For the molecule `OCCCCCCOc1ccc(-c2cc(-c3ccccn3)nc(-c3ccccn3)c2)cc1`, the TGI with HCC-2998 colon is 16.3 µM; in the experiment on HCT-116 colon, 1.48 µM; in the experiment on OVCAR-8 ovarian, 1.7 µM; in the experiment on UACC-257 melanoma, 10.2 µM; with CAKI-1 renal, 1.66 µM; with KM12 colon it was 2.42 µM. The TGI with UO-31 renal is 2.45 µM; in the experiment with HOP-92 NSCLC, 14.8 µM; with DU-145 prostate, 7.83 µM; with SNB-19 CNS, 37.8 µM.
Consider `C=C(C)C(=O)O[C@H]1[C@H]2[C@H](OC(=O)[C@H]2C)[C@H](O)[C@@H](C)[C@@H]2C=CC(=O)[C@]21C`, for which the TGI in the experiment on HCC-2998 colon turned out to be 5.72 µM; with HCT-116 colon, 4.6 µM; with OVCAR-8 ovarian it was 4.07 µM; in the experiment on UACC-257 melanoma, 7.73 µM; in the experiment on CAKI-1 renal it was 5.66 µM; in the experiment on KM12 colon it was 7.38 µM. Besides, the TGI in the experiment with UO-31 renal amounted to 15.4 µM; in the experiment on HOP-92 NSCLC it was 8.89 µM; with DU-145 prostate, 12.9 µM; in the experiment with SNB-19 CNS, 18.6 µM.
